A word on the IC50: it is the point on the concentration scale where inhibition reaches its midpoint. Read a low IC50 as inhibition by little substance.

The test system of one data set is T47D. The experiment in a line: cells. The note with it: Homo sapiens, 48 h.
The next data set concerns MCF7. The experiment in a line: cells. The note with it: Homo sapiens, MCF7, 48 h.
Another data set deals with MDA-MB-231. The experiment in a line: cells. The note with it: Homo sapiens, MDA-MB-231, 48 h.
The nature of data set [1]: Cytotoxicity against human HEK293 cells incubated for 48 hrs by MTT assay. Format: toxicity, cell-based. A general note: Formazan colour is commonly taken as a measure of viable cells.

Description for MCF7: Antiproliferative activity against human MCF7 cells assessed as inhibition of cell growth incubated for 48 hrs by MTT assay
Description for MDA-MB-231: Antiproliferative activity against human MDA-MB-231 cells assessed as inhibition of cell growth incubated for 48 hrs by MTT assay
Description for T47D: Antiproliferative activity against human T47D cells assessed as inhibition of cell growth incubated for 48 hrs by MTT assay

Regarding `Fc1ccc(Cn2nnc(-c3cn(Cc4ccccc4)c4ccccc34)n2)cc1`, the IC50 turned out to be 17.8 µM in the data set on T47D, 22.7 µM in the data set with MCF7 and 12.9 µM in the data set on MDA-MB-231.
For the compound `Cc1ccc(Cn2cc(-c3nnnn3Cc3cccc(Cl)c3)c3ccccc32)cc1`, the 50% inhibitory concentration (IC50) in the data set with T47D turned out to be 20 µM; in the data set with MCF7 it was 14.8 µM; in the data set on MDA-MB-231, 8.52 µM.
The like results for `Cc1ccc(Cn2cc(-c3nnn(Cc4ccc(Cl)c(Cl)c4)n3)c3ccccc32)cc1` were, in that order, 23.9 µM, 8.73 µM and 14.9 µM.
With `Cc1c(-c2ccc(O)cc2)n(Cc2ccc(OCCN3CCCCCC3)cc2)c2ccc(O)cc12` [BAZEDOXIFENE], in data set [1], the IC50 at 48 h is 38.5 µM. Besides, the IC50 with T47D worked out at 14.2 µM; in the data set with MCF7, 7.31 µM; with MDA-MB-231 it was 6.73 µM.
As to `Cc1ccc(Cn2nnc(-c3cn(Cc4ccccc4)c4ccccc34)n2)cc1`, the IC50 in the data set on T47D is 10.1 µM; with MCF7 it was 11.3 µM; in the data set on MDA-MB-231 it was 13.4 µM.
In the case of `Cc1ccc(Cn2cc(-c3nnn(Cc4cccc(Cl)c4)n3)c3ccccc32)cc1`, the IC50 in the data set on T47D amounted to 14.2 µM; in the data set with MCF7, 13.2 µM; in the data set on MDA-MB-231 it was 12.8 µM.
`Clc1ccc(Cn2nnc(-c3cn(Cc4ccccc4)c4ccccc34)n2)cc1Cl`: the half-inhibitory concentration (IC50) at 48 h in data set [1] was above 125 µM. The IC50 in the data set on T47D was found to be 10 µM; with MCF7 it was 7.95 µM; in the data set with MDA-MB-231 it was 19.4 µM.
On to `COc1cccc(Cn2nnc(-c3cn(Cc4ccccc4)c4ccccc34)n2)c1`, for which the IC50 in the data set with T47D stood at 16.5 µM; in the data set with MCF7 it was 3.08 µM; in the data set on MDA-MB-231, 15.9 µM.
For the compound `Cc1ccc(Cn2cc(-c3nnnn3Cc3ccccc3)c3ccccc32)cc1`, the IC50 with T47D was determined as 14.5 µM; in the data set with MCF7, 9.93 µM; in the data set with MDA-MB-231 it was 9.62 µM.
The like results for `c1ccc(Cn2nnc(-c3cn(Cc4ccccc4)c4ccccc34)n2)cc1` were, in that order, 13.5 µM, 9.24 µM and 14.7 µM.
The like results for `Clc1cccc(Cn2nnc(-c3cn(Cc4ccccc4)c4ccccc34)n2)c1` were, in that order, 11.7 µM, 14.2 µM and 18.8 µM.
In the case of `Cc1ccc(Cn2nnnc2-c2cn(Cc3ccc(C)cc3)c3ccccc23)cc1`, the IC50 was found to be 23.7 µM with T47D, 20.6 µM in the data set with MCF7 and 9.72 µM with MDA-MB-231.
For the compound `COc1cccc(Cn2nnc(-c3cn(Cc4ccc(C)cc4)c4ccccc34)n2)c1`, the IC50 with T47D is above 25 µM; in the data set with MCF7, 15.1 µM; in the data set with MDA-MB-231, 12.1 µM.
As for `Cc1ccc(Cn2cc(-c3nnn(Cc4ccc(F)cc4)n3)c3ccccc32)cc1`, the values for the IC50 with T47D, with MCF7 and in the data set on MDA-MB-231 were 15.8 µM, 13.3 µM and 13.1 µM, respectively.
The matching figures for `c1ccc(Cn2cc(-c3nnn[nH]3)c3ccccc32)cc1`: 24.4 µM, above 25 µM and 16.6 µM.
As for `Cc1ccc(Cn2cc(-c3nnnn3Cc3ccc(Cl)cc3Cl)c3ccccc32)cc1`, the IC50 is 8.15 µM in the data set on T47D, 8.32 µM in the data set on MCF7 and 11.2 µM with MDA-MB-231.
The matching figures for `Cc1ccc(Cn2cc(-c3nnn[nH]3)c3ccccc32)cc1`: 14.1 µM, 9.99 µM and 13.8 µM.
As to `Clc1ccc(Cn2nnc(-c3cn(Cc4ccccc4)c4ccccc34)n2)c(Cl)c1`, the IC50 with T47D came out at 10.9 µM; with MCF7, 12.7 µM; with MDA-MB-231, 7.69 µM.
The matching figures for `Cc1ccc(Cn2cc(-c3nnn(Cc4ccc(Cl)cc4Cl)n3)c3ccccc32)cc1`: 10.6 µM, 16.6 µM and 16.7 µM.
The like results for `Cc1ccc(Cn2cc(-c3nnnn3Cc3ccc(Cl)c(Cl)c3)c3ccccc32)cc1` were, in that order, 9.01 µM, 10.2 µM and 12.4 µM.
For the compound `Cc1ccc(Cn2nnc(-c3cn(Cc4ccc(C)cc4)c4ccccc34)n2)cc1`, the IC50 in the data set with T47D is above 25 µM; with MCF7 it was above 25 µM; in the data set on MDA-MB-231 it was 15.8 µM.
Regarding `Clc1ccc(Cn2nnc(-c3cn(Cc4ccccc4)c4ccccc34)n2)cc1`, the IC50 at 48 h in data set [1] was 109 µM. Further, the IC50 amounted to 3.83 µM with T47D, 7.83 µM with MCF7 and 15.7 µM with MDA-MB-231.
In the case of `Cc1ccc(Cn2cc(-c3nnn(Cc4ccccc4)n3)c3ccccc32)cc1`, the 50% inhibitory concentration (IC50) is 15.8 µM with T47D, 11.9 µM in the data set on MCF7 and 8.2 µM in the data set on MDA-MB-231.
Regarding `Cc1ccc(Cn2cc(-c3nnn(Cc4ccc(Cl)cc4)n3)c3ccccc32)cc1`, the IC50 amounted to 18.8 µM in the data set on T47D, 16.4 µM in the data set with MCF7 and 11.6 µM with MDA-MB-231.

Source of the values: ChEMBL document CHEMBL5385969, “Design, synthesis, in vitro and in silico evaluation of indole-based tetrazole derivatives as putative anti-breast cancer agents” (RSC Med Chem, 2024).
